Experiment: Particle size and morphology by transmission electron microscopy (TEM)
Assay type: physicochemical
Experimental: Precipitation of beclomethasone was carried out by modifying a method published earlier, where the drug was crystallised either in pure water or in the presence of a surfactant, Tween-80 (Wang et al. 2007^xi, Matteucci et al., 2006^xii). 34.8 mM beclomethasone dipropionate (BDB, MW 521.1) solution was prepared by dissolving the BDP in methanol. 0.5 ml of BDP solution was poured into 20 ml of pure deionized water with 0-0.15 wt-% (0-208.3 μM) HFBII. The resulting aqueous solution had 0.05 wt-% BDP. Both solutions were filtered with 0.2 μm syringe filter to remove possible impurities prior to use. The receiving liquid was stirred vigorously with a magnetic stirrer and temperature of the solution was controlled by keeping the sample in an ice bath or in room temperature during the precipitation. The precipitate was observed as a turbid solution immediately after BDP addition.
Transmission electron microscopy (TEM): 20 min after precipitation 20 μl of the nanoparticle dispersions were dried on formvar film-coated copper grids with mesh size 300.
The synthesis was done as in the earlier section, except that the drug used was itraconazole. Mass ratios of 2:1, 1:1 and 1:2 of HFBII:itraconazole were tested. TEM was used to study the size and morphology of the particles. […] Monodispersity increased with increasing HFBII amount. […]

With CCC(=O)OCC(=O)[C@@]1(OC(=O)CC)[C@@H](C)C[C@H]2[C@@H]3CCC4=CC(=O)C=C[C@]4(C)[C@@]3(Cl)[C@@H](O)C[C@@]21C [BDP, beclomethasone dipropionate] the “crystals formed (size and habit)” value (precipitated from methanol into water without HFBII) was “a few micrometer long needles” and the particle size (precipitated with HFBII at room temperature, TEM) was “several micrometers”.
